Laboratory results: patent publication US20230021483A1, “[…] […] METHOD AND CLASSIFICATION OF PHARMACEUTICAL COMPONENTS BY USING TRANSCRIPTOMES” (National Institutes of Biomedical Innovation, Health and …, priority 2016, published 2023)

Test system: adjuvant-associated biological themes in LV, SP, LN
Details: LV, ID
Description: A defined sets of genes were selected according to specified criteria (e.g., FC, PA-call, threshold values). Their functional enrichment values were then obtained from TargetMine (Chen, Y. A., Tripathi, L. P. & Mizuguchi, K. PloS one 6, e17844 (2011)) (http://targetmine.mizuguchilab.org/) using the API interface. The following resources were used throughout the analysis via TargetMine Interface (GO, GOSlim, Integrated Pathway, KEGG, Reactome, and the NCI pathway). The Holm-Bonferroni method was used for multiple testing corrections.
Whole organ transcriptome data for each organ from each mouse were analyzed as follows to obtain biological themes for individual samples from each adjuvant-administered group of three mice. […] A set of Pj genes was first defined, where eij/ei(c)>2.0. Biological themes enriched within Pj were then identified using TargetMine (Chen, Y. A. et al., PloS one 6, e17844 (2011)) (http://targetmine.mizuguchilab.org/). Tj denote the resulting list of biological themes, with associated p-values from Fischer's exact test.
Next, the biological themes called by all the individual samples in the group were scored as follows. Having obtained three lists (T1, T2 and T3) for a given experimental condition, a consensus list T of themes was created as T={(t1, p1), (t2, p2), . . . }, where ti is a biological theme that appears in all of T1, T2 and T3, and pi is the smallest of the associated p-values. Only the themes with the p-value of <0.05 were included in T.
To summarize the biological themes in T further, a list of terms considered to be associated with adjuvant activity in general was separately prepared. AT={at1, at2, . . . }, where ati is a pre-selected adjuvant-associated term (e.g., “stress” or “cytokine”). Finally, an enrichment score S for an adjuvant-associated term ati was defined as: S(ati)=Σ−log(pj), where the name of tj in T includes a term ati as a substring and pj is the associated p-value.
This scoring scheme summarizes the relative enrichment of pre-selected adjuvant-associated terms in genes responding to each adjuvant in each organ.

Substance: Poly_IC
- IFN alpha, GO annotation line 1 of 5: 13.3
- IFN alpha, GO annotation line 2 of 5: 4.7
- IFN alpha: cellular response to interferon-alpha: 4.95
- IFN alpha: positive regulation of interferon-alpha production: 5.95
- IFN alpha: regulation of interferon-alpha production: 5.3
- IFN beta: cellular response to interferon-beta: 17.2
- IFN beta: interferon-beta production: 9.35
- IFN beta: positive regulation of interferon-beta production: 8.94
- IFN beta: regulation of interferon-beta production: 7.54
- IFN beta: response to interferon-beta: 23
- IFN gamma: cellular response to interferon-gamma: 10.5
- IFN gamma: interferon-gamma production: 5.43
- IFN gamma: regulation of interferon-gamma production: 5.32
- IFN gamma: response to interferon-gamma: 22.3
- NF-kappa B signaling pathway, GO annotation line 1 of 4: 18
- NF-kappa B signaling pathway, GO annotation line 2 of 4: 13.5
- NF-kappa B signaling pathway, GO annotation line 3 of 4: 8.57
- NF-kappa B signaling pathway, GO annotation line 4 of 4: 9.04
- TNF signaling pathway: 22.1
- adaptive immune response, GO annotation line 1 of 5: 11.9
- adaptive immune response, GO annotation line 2 of 5: 13
- adaptive immune response, GO annotation line 3 of 5: 7.16
- adaptive immune response, GO annotation line 4 of 5: 6.84
- adaptive immune response, GO annotation line 5 of 5: 0
- apoptosis, GO annotation line 1 of 8: 15.7
- apoptosis, GO annotation line 2 of 8: 14.8
- apoptosis, GO annotation line 3 of 8: 12.4
- apoptosis, GO annotation line 4 of 8: 7.32
- apoptosis, GO annotation line 5 of 8: 3.59
- apoptosis, GO annotation line 6 of 8: 7.04
- apoptosis, GO annotation line 7 of 8: 4.79
- apoptosis, GO annotation line 8 of 8: 0
- cell death, GO annotation line 1 of 9: 22.6
- cell death, GO annotation line 2 of 9: 17.8
- cell death, GO annotation line 3 of 9: 18.1
- cell death, GO annotation line 4 of 9: 15.4
- cell death, GO annotation line 5 of 9: 15.6
- cell death, GO annotation line 6 of 9: 4.25
- cell death, GO annotation line 7 of 9: 3.46
- cell death, GO annotation line 8 of 9: 4.38
- cell death, GO annotation line 9 of 9: 4.89
- chemokine, GO annotation line 1 of 4: 6.25
- chemokine, GO annotation line 2 of 4: 7.84
- chemokine, GO annotation line 3 of 4: 9.13
- chemokine, GO annotation line 4 of 4: 9
- chemotaxis, GO annotation line 1 of 11: 20.7
- chemotaxis, GO annotation line 2 of 11: 6.87
- chemotaxis, GO annotation line 3 of 11: 22
- chemotaxis, GO annotation line 4 of 11: 13.1
- chemotaxis, GO annotation line 5 of 11: 6.8
- chemotaxis, GO annotation line 6 of 11: 7.42
- chemotaxis, GO annotation line 7 of 11: 7.6
- chemotaxis, GO annotation line 8 of 11: 8.31
- chemotaxis, GO annotation line 9 of 11: 9.92
- chemotaxis, GO annotation line 10 of 11: 6.5
- chemotaxis, GO annotation line 11 of 11: 3.15
- cytokine, GO annotation line 1 of 17: 66.1
- cytokine, GO annotation line 2 of 17: 48.5
- cytokine, GO annotation line 3 of 17: 42.3
- cytokine, GO annotation line 4 of 17: 12.1
- cytokine, GO annotation line 5 of 17: 45.6
- cytokine, GO annotation line 6 of 17: 43.5
- cytokine, GO annotation line 7 of 17: 20.9
- cytokine, GO annotation line 8 of 17: 7.3
- cytokine, GO annotation line 9 of 17: 8.4
- cytokine, GO annotation line 10 of 17: 34.3
- cytokine, GO annotation line 11 of 17: 12.6
- cytokine, GO annotation line 12 of 17: 4.18
- cytokine, GO annotation line 13 of 17: 15
- cytokine, GO annotation line 14 of 17: 14.5
- cytokine, GO annotation line 15 of 17: 3.4
- cytokine, GO annotation line 16 of 17: 3.66
- cytokine, GO annotation line 17 of 17: 5.29
- defense response, GO annotation line 1 of 11: 90.6
- defense response, GO annotation line 2 of 11: 57.5
- defense response, GO annotation line 3 of 11: 41.3
- defense response, GO annotation line 4 of 11: 48.9
- defense response, GO annotation line 5 of 11: 15.8
- defense response, GO annotation line 6 of 11: 6.93
- defense response, GO annotation line 7 of 11: 4.67
- defense response, GO annotation line 8 of 11: 25.8
- defense response, GO annotation line 9 of 11: 6.75
- defense response, GO annotation line 10 of 11: 4.62
- defense response, GO annotation line 11 of 11: 0
- immune response, GO annotation line 1 of 8: 79.8
- immune response, GO annotation line 2 of 8: 35.5
- immune response, GO annotation line 3 of 8: 39.5
- immune response, GO annotation line 4 of 8: 23.2
- immune response, GO annotation line 5 of 8: 20.5
- immune response, GO annotation line 6 of 8: 23.7
- immune response, GO annotation line 7 of 8: 3.8
- immune response, GO annotation line 8 of 8: 4.58
- inflammatory response, GO annotation line 1 of 5: 32.2
- inflammatory response, GO annotation line 2 of 5: 14.4
- inflammatory response, GO annotation line 3 of 5: 5.99
- inflammatory response, GO annotation line 4 of 5: 0
- inflammatory response, GO annotation line 5 of 5: 0
- innate immune response, GO annotation line 1 of 6: 59.5
- innate immune response, GO annotation line 2 of 6: 40.7
- innate immune response, GO annotation line 3 of 6: 27.7
- innate immune response, GO annotation line 4 of 6: 23.3
- innate immune response, GO annotation line 5 of 6: 18.5
- innate immune response, GO annotation line 6 of 6: 7.74
- interleukin-6: interleukin-6 production: 9.62
- interleukin-6: positive regulation of interleukin-6 production: 5.06
- interleukin-6: regulation of interleukin-6 production: 10.2
- interleukin-12: interleukin-12 production: 6.82
- interleukin-12: positive regulation of interleukin-12 production: 4.28
- interleukin-12: regulation of interleukin-12 production: 7.39
- migration, GO annotation line 1 of 10: 22.1
- migration, GO annotation line 2 of 10: 6.99
- migration, GO annotation line 3 of 10: 23.4
- migration, GO annotation line 4 of 10: 18.5
- migration, GO annotation line 5 of 10: 9
- migration, GO annotation line 6 of 10: 9.34
- migration, GO annotation line 7 of 10: 8.14
- migration, GO annotation line 8 of 10: 7.59
- migration, GO annotation line 9 of 10: 6.05
- migration, GO annotation line 10 of 10: 3.46
- stress, GO annotation line 1 of 3: 58.8
- stress, GO annotation line 2 of 3: 40.8
- stress, GO annotation line 3 of 3: 5.39
- wounding, GO annotation line 1 of 3: 16.7
- wounding, GO annotation line 2 of 3: 14.8
- wounding, GO annotation line 3 of 3: 9.8
